For data set [1] the following is noted: after twelve months; US 6,441,168 (Example 1); 525600 min; cited from earlier work.
Data set [2] is described as follows: Stability of the powder in sealed aluminium foil bag, purity and titre by HPLC after 6 and 12 months. It counts as physicochemical. The conditions noted are these: airtight container, protected from light; for Starting values Purity / Starting values Titre: start. The protocol: The stability of the compounds listed in the following table, under powder form and in sealed aluminium foil bag, was tested, keeping the samples in airtight container, protected from light and measuring the purity and the titre thereof after 6 and 12 months.
In particular, the stability of the acid moiety was observed by HPLC, detecting the purity and titre thereof.

For data set [3] the following is noted: general knowledge stated in the introduction; cited from earlier work.

Structures can show the parent of a compound that is named as a salt.

In the case of `CN1c2c(nc(N)[nH]c2=O)NCC1CNc1ccc(C(=O)NC(CCC(=O)O)C(=O)O)cc1` [5-methyl-(6S)-tetrahydrofolic acid calcium salts], in data set [1], the titre decrease entry was “about 1%”.

With `CN1c2c(nc(N)[nH]c2=O)NCC1CNc1ccc(C(=O)NC(CCC(=O)O)C(=O)O)cc1` [D-GLU (6S)-5-MTHF, D-glucosamine 5-methyl-(6S)-tetrahydrofolate], in data set [2], the “After 6 months Purity” value was 99.0, the “After 6 months Titre” value was determined as 55.4, the “After 12 months Purity” value worked out at 98.5 and the “After 12 months Titre” value was found to be 55.1. In addition, in data set [2], the “Starting values Purity” value turned out to be 99.3 and the “Starting values Titre” value turned out to be 55.7.

As to `Nc1nc2ncc(CNc3ccc(C(=O)N[C@@H](CCC(=O)O)C(=O)O)cc3)nc2c(=O)[nH]1` [D-GLU folate, D-glucosamine L-folate], in data set [2], the “After 6 months Purity” value is 98.8, the “After 6 months Titre” value was 54.3, the “After 12 months Purity” value came to 98.7 and the “After 12 months Titre” value is 54.0. Moreover, in data set [2], the “Starting values Purity” value turned out to be 99.1 and the “Starting values Titre” value was determined as 54.6.

`Nc1nc2ncc(CNc3ccc(C(=O)N[C@@H](CCC(=O)O)C(=O)O)cc3)nc2c(=O)[nH]1` [D-GAL folate, D-galactosamine L-folate]: in data set [2], the “After 6 months Purity” value is 99.1, the “After 6 months Titre” value amounted to 54.5, the “After 12 months Purity” value is recorded as 98.7 and the “After 12 months Titre” value amounted to 54.2. In data set [2], the “Starting values Purity” value was determined as 99.2 and the “Starting values Titre” value is reported as 54.8.

For the compound `Nc1nc2ncc(CNc3ccc(C(=O)N[C@@H](CCC(=O)O)C(=O)O)cc3)nc2c(=O)[nH]1` [Folic acid, N-[4-[[(2-amino-1,4-dihydro-4-oxo-6-pteridinyl)methyl]amino]benzoyl]-L-glutamic acid], in data set [3], the “solubility in water (in words)” value is recorded as “very slightly soluble in water”.

`CN1c2c(nc(N)[nH]c2=O)NCC1CNc1ccc(C(=O)N[C@@H](CCC(=O)O)C(=O)O)cc1` (stereo partly drawn) [D-GLU 5-MTHF, D-glucosamine 5-methyl-(6R,S)-tetrahydrofolate]: in data set [2], the “After 6 months Purity” value stood at 98.9, the “After 6 months Titre” value was 55.0, the “After 12 months Purity” value is on record as 99.0 and the “After 12 months Titre” value is reported as 54.8. For the same compound, in data set [2], the “Starting values Purity” value is 99.1 and the “Starting values Titre” value is on record as 55.2.

Regarding `CN1c2c(nc(N)[nH]c2=O)NCC1CNc1ccc(C(=O)N[C@@H](CCC(=O)O)C(=O)O)cc1` (stereo partly drawn) [D-GAL (6R,S)-5-MTHF, D-galactosamine 5-methyl-(6R,S)-tetrahydrofolate], in data set [2], the “After 6 months Purity” value is on record as 98.9, the “After 6 months Titre” value amounted to 55.2, the “After 12 months Purity” value is listed as 98.7 and the “After 12 months Titre” value is listed as 55.3. Also, in data set [2], the “Starting values Purity” value is on record as 99.1 and the “Starting values Titre” value is 55.5.

Values taken from patent publication EP2245032B1, “FOLATES, COMPOSITIONS AND USES THEREOF” (priority 2008, dated 2009).
